Test results taken from patent US11040031B2, “Pyrazole derivatives as MALT1 inhibitors” (Janssen Pharmaceutica NV, priority 2018, dated 2021).
Where two headings read alike, the source gives them in different places.

How the values were obtained:
[1] = tested on: OCI-Ly3 ABC-DLBCL cell line; assay: 4-day proliferation assay OCI-Ly3; type: cell-based; details: Homo sapiens, read-out: Anti-proliferation: OCI-LY-3 IC50
How it was run: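 10,000 OCI-Ly3 cells per well cultured 4 days at 37° C., 5% CO2 without beta-mercaptoethanol, at densities giving linear growth. Viability read by CellTiterGLO luminescence after 10 min at room temperature.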

[2] = target: T1, full-length MALT1 protein (Strep-MALT1(1-824)-His) (Homo sapiens, UniProt Q9UDY8); assay: biochemical;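 also: fluorogenic LRSR-AMC substrate cleavage by MALT1, 50 min compound preincubation then 4 h reaction at RT, 11-point dilution from 30 µM, scaled between enzyme-free and untreated enzyme controls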
T1 sequence (Q9UDY8 1-824): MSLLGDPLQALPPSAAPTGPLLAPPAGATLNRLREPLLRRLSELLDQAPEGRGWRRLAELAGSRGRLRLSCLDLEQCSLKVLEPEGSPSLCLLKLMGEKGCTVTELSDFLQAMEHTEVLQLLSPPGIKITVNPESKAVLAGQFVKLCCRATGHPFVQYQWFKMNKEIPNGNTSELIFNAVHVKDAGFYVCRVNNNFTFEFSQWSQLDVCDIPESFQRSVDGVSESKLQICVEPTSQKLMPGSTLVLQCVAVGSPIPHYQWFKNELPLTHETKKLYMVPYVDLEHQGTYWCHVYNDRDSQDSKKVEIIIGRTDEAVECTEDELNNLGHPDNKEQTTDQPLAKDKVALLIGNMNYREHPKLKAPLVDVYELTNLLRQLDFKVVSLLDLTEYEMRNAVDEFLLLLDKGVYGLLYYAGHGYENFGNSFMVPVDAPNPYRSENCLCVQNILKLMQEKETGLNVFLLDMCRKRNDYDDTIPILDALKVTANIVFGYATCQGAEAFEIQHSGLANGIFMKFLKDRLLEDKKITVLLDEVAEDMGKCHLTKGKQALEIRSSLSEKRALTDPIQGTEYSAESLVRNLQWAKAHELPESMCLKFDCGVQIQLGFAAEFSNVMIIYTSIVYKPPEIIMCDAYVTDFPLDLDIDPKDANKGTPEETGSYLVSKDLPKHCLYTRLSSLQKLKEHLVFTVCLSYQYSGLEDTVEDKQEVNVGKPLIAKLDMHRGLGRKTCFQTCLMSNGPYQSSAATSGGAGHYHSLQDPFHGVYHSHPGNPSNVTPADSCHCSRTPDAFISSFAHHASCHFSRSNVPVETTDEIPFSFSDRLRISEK

[3] = tested on: Secretion of IL10 by OCI-LY3 ABC-DLBCL cells; assay: Human IL10 Mesoscale assay (OCI-LY3); type: cell-based; details: OCI-LY3 cells, 24 h incubation, supernatant, MSD V-Plex, read-out: Human IL10 Mesoscale assay (OCI-LY3)
How it was run: (§1)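 TMD8 or OCI-LY3 ABC-DLBCL cells incubated with compound 24 h at 37° C without beta-mercaptoethanol. Secreted IL6 and IL10 in supernatant quantified by MSD electrochemiluminescence immunoassay; DMSO wells define maximum signal.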

[4] = tested on: Secretion of IL6 by OCI-LY3 ABC-DLBCL cells; assay: Human IL6 Mesoscale assay (OCI-LY3); type: cell-based; details: OCI-LY3 cells, 24 h incubation, supernatant, MSD V-Plex, read-out: Human IL6 Mesoscale assay (OCI-LY3)
How it was run: as §1

[5] = tested on: Secretion of IL6 by TMD8 ABC-DLBCL cells; assay: Human IL6 Mesoscale assay (TMD-8); type: cell-based; details: read-out: Human IL6 Mesoscale assay (TMD-8)
Description: (§2) NFKB signaling regulates the secretion of multiple cytokines, including IL6 and IL10. Secretion of the cytokines IL6 and IL10 by TMD8 or OCI-LY3 ABC-DLBCL cells was measured using a mesoscale assay.
(§3) Cell passage number should not exceed 30. Cells should be kept between 0.5-2.5 million cells per mL during culturing and cells should be supplemented every 2-3 days with fresh 50 µM beta-mercaptoenthanol. No beta-mercaptoethanol was used during the mesoscale assay.
(§4) DMSO control wells were used to determine the maximum signal (High Control (HC)). […] Compounds and cells were incubated for 24 h at 37° C. and 5% CO2 (assay volume is 150 μL). After 24 h of incubation 50 μL of the supernatant was transferred to a MSD plate (V-Plex Proinflammation Panel 1 (human) kit, Mesoscale (MSD)) and incubated for 2 h with vigorous shaking (600 rpm) at room temperature. Following incubation, plates were washed 3× with PBS+0.05% Tween-20 and 25 μL detection antibody solution (IL6 & IL10 antibodies in diluent 3 (MSD)) was added per well followed by 2 h of incubation with vigorous shaking (600 rpm) at room temperature. After 3× washes with PBS+0.05% Tween-20, plates were incubated with 150 μL 2× Read Buffer T and read on SECTOR imager.

[6] = tested on: Secretion of IL10 by TMD8 ABC-DLBCL cells; assay: Human IL10 Mesoscale assay (TMD-8); type: cell-based; details: read-out: Human IL10 Mesoscale assay (TMD-8)
Description: as §2, §3, §4

[7] = 96 h, 10,000 OCI-Ly3 cells per well, 4 days, CellTiterGLO
[8] = TMD8 cells, 24 h incubation, supernatant, MSD V-Plex

Compound	IC50 [1, 7] [nM]	IC50 [2] [nM]	IC50 [3] [nM]	IC50 [4] [nM]	IC50 [5, 8] [nM]	IC50 [6, 8] [nM]	IC50 ([1]; OCI-Ly3, 96 h) [nM]	IC50 ([5]; TMD8, 24 h) [nM]	IC50 ([6]; TMD8, 24 h) [nM]
Cc1cc(F)ccc1-n1ncc(C(=O)Nc2cnc(-n3nccn3)c(Cl)c2)c1C(F)(F)F [Cpd 1, N-(5-Chloro-6-(2H-1,2,3-triazol-2-yl)pyridin-3-yl)-1-(4-fluoro-2-methylphenyl)-5-(trifluoromethyl)-1H-pyrazole-4-carboxamide]	1350	117	58	83	79	85			
N#Cc1cc(NC(=O)c2cnn(-c3ccncc3Cl)c2C(F)(F)F)cnc1-n1nccn1 [Cpd 45, 1-(3-chloropyridin-4-yl)-N-(5-cyano-6-(2H-1,2,3-triazol-2-yl)pyridin-3-yl)-5-(trifluoromethyl)-1H-pyrazole-4-carboxamide]	4790	87			162	339			
N#Cc1cc(NC(=O)c2cnn(-c3c(Cl)cncc3Cl)c2C(F)(F)F)cnc1-n1nccn1 [Cpd 48, N-(5-cyano-6-(2H-1,2,3-triazol-2-yl)pyridin-3-yl)-1-(3,5-dichloropyridin-4-yl)-5-(trifluoromethyl)-1H-pyrazole-4-carboxamide]		204					3630	1620	513
N#Cc1cc(NC(=O)c2cnn(-c3cccc4c3OCCO4)c2C(F)(F)F)cnc1-n1nccn1 [Cpd 49, N-(5-cyano-6-(2H-1,2,3-triazol-2-yl)pyridin-3-yl)-1-(2,3-dihydrobenzo[b][1,4]dioxin-5-yl)-5-(trifluoromethyl)-1H-pyrazole-4-carboxamide]	437	148			145	151			
Cc1cc(-n2ncc(C(=O)Nc3cnc(-n4nccn4)c(Cl)c3)c2C(F)(F)F)c(Cl)cn1 [Cpd 68, 1-(5-chloro-2-methylpyridin-4-yl)-N-(5-chloro-6-(2H-1,2,3-triazol-2-yl)pyridin-3-yl)-5-(trifluoromethyl)-1H-pyrazole-4-carboxamide]		427					7080	5500	7080
Cc1cc(-n2ncc(C(=O)Nc3cnc(-n4nccn4)c(C#N)c3)c2C(F)(F)F)c(Cl)cn1 [Cpd 70, 1-(5-chloro-2-methylpyridin-4-yl)-N-(5-cyano-6-(2H-1,2,3-triazol-2-yl)pyridin-3-yl)-5-(trifluoromethyl)-1H-pyrazole-4-carboxamide]		204					6610	4470	3550

Continued by falling IC50 [2], values first:

IC50 [1, 7] [nM]	IC50 [2] [nM]	IC50 [3] [nM]	IC50 [4] [nM]	IC50 [5, 8] [nM]	IC50 [6, 8] [nM]	IC50 ([1]; OCI-Ly3, 96 h) [nM]	IC50 ([5]; TMD8, 24 h) [nM]	IC50 ([6]; TMD8, 24 h) [nM]	Compound
2090	257			2290	3240				Cc1nccc(-n2ncc(C(=O)Nc3cnc(-n4nccn4)c(Cl)c3)c2C(F)(F)F)c1Cl [Cpd 69, 1-(3-chloro-2-methylpyridin-4-yl)-N-(5-chloro-6-(2H-1,2,3-triazol-2-yl)pyridin-3-yl)-5-(trifluoromethyl)-1H-pyrazole-4-carboxamide]
2880	251			2290	2040				N#Cc1cc(NC(=O)c2cnn(-c3ncc(F)cc3Cl)c2C(F)(F)F)cnc1-n1nccn1 [Cpd 106, 1-(3-chloro-5-fluoropyridin-2-yl)-N-(5-cyano-6-(2H-1,2,3-triazol-2-yl)pyridin-3-yl)-5-(trifluoromethyl)-1H-pyrazole-4-carboxamide]
1100	191			550	1350				CN1CCOc2c1cccc2-n1ncc(C(=O)Nc2cnc(-n3nccn3)c(C#N)c2)c1C(F)(F)F [Cpd 132, N-(5-cyano-6-(2H-1,2,3-triazol-2-yl)pyridin-3-yl)-1-(4-methyl-3,4-dihydro-2H-benzo[b][1,4]oxazin-8-yl)-5-(trifluoromethyl)-1H-pyrazole-4-carboxamide]
1860	74	145	166	89	209				N#Cc1cc(NC(=O)c2cnn(-c3ccnc4c3OCO4)c2C(F)(F)F)cnc1-n1nccn1 [Cpd 53, 1-([1,3]dioxolo[4,5-b]pyridin-7-yl)-N-(5-cyano-6-(2H-1,2,3-triazol-2-yl)pyridin-3-yl)-5-(trifluoromethyl)-1H-pyrazole-4-carboxamide]
	41					468	35	48	N#Cc1cc(NC(=O)c2cnn(-c3cccc4c3OCO4)c2C(F)(F)F)cnc1-n1nccn1 [Cpd 59, 1-(benzo[d][1,3]dioxol-4-yl)-N-(5-cyano-6-(2H-1,2,3-triazol-2-yl)pyridin-3-yl)-5-(trifluoromethyl)-1H-pyrazole-4-carboxamide]
